How the values were obtained:
[1] = test system: Dark Agouti rats (air pouch); test: Rat air pouch assay (serum-treated zymozan); assay type: in vivo; details: for Leucocytes in lavage fluid (×10^−7) / Polymorphs in tissue sections (per 100 squares): 4 h; for activity in the rat air pouch assay: in vivo
Description: Air pouches were raised on the dorsum of female Dark Agouti rats, approximately seven weeks of age. To promote the formation of a cellular membrane lining the inside of each pouch, the pouches were maintained by re-inflating on days 2 and 5 after the initial injection of air. On re-inflation, the pouch was first deflated to ensure the needle was positioned correctly, before being re-inflated with 2 mL of sterile air. Using this protocol, the pouches remained inflated until use on day 7, when they were injected with 0.5 ml of either test compound or vehicle control. After 15 min, air pouches were injected with serum-treated zymozan (500 μg). Lavage of the air pouch was performed at 4 h and leucocytes counted, after which the rats were killed, the air pouch excised and processed in formalin for histology. The sections were blinded to the person counting. Using a graticule with 100 squares and the 40× objective, the number of polymorphs were counted in the pouch lining at 10 different and non-adjacent sites. Group sizes were 5-6 rats. Data were analysed for statistical significance within each experiment and using an unpaired t test.

[2] = test system: P-cadherin; test: UVB psoriasis model: immunohistochemical detection of P-cadherin; assay type: in vivo, mouse; details: 20 μM topical
Description: Groups of three Skh:hr-1 mice were exposed to 3×MEdD of UVB radiation, with and without topical treatment with 20 μM Cpd. 18, and were euthanased before and at 24, 48, 72 and 96 h after irradiation, and mid-dorsal skin samples were taken for histological fixation. The samples were fixed for 6 h in Histochoice (Amresco Solon, Ohio), then processed overnight in an automated formalin-ethanol-based system (Tissue Tek VIP; Bayer Diagnostics, Ferntree Gully, Australia) and embedded into paraffin blocks. Sections of 4 μm were cut onto silane-coated slides, de-waxed and rehydrated using xylene followed by graded aqueous ethanol solutions to PBS. Endogenous peroxidase activity of the sections was quenched with 3% H2O2 in methanol for 10 min at room temperature and washed 3 times with PBS. The sections were then blocked with 10% skim milk in PBS for 40 min at room temperature. […]
The stained sections were examined by light microscopy at 20× magnification and images were captured digitally with a Sony Hyper HAD colour video camera (Sony, Tokyo, Japan). Stain intensity was analysed using a Leica Q500 MC image processing and analysis system (Leica, Cambridge, UK) and semi-quantitated in arbitrary image analysis units as the average intensity of 15 sequential fields across the skin section for each of 3 mice per treatment group. […]

[3] = test system: SJL/J mice (EAE); test: Experimental autoimmune encephalomyelitis (EAE), PLP 139-151; assay type: in vivo, mouse; details: 20 μM, 100 μl topical daily
Description: EAE induction was carried by immunisation with PLP 139-151 ([…]-NH2) in incomplete Freund's adjuvant (Sigma) supplemented with 4 mg/ml of Mycobacterium tuberculosis (strain H37Ra) as described previously, Groups of 6 female mice aged 4-5 weeks old were immunised, and body weight and the development neurological signs were monitored daily for 6 weeks. Clinical signs were scored according to an established scale:
Cpd. 18 was made up to a concentration of 20 μM in a vehicle of propylene glycol-ethanol-water (1:2:1) with 0.001% DMSO). An aliquot of 100 μl either of Cpd. 18 in vehicle, or the vehicle alone, was applied to the mouse dorsum (six mice per group) for 5 days before the immunisation (with PLP 139-151) and daily post-immunisation for 48 days.

Row | melting point [°C] | Compound | Leucocytes in lavage fluid (×10^−7) ([1]; 1 mM added to air pouch) | Polymorphs in tissue sections (per 100 squares) ([1]; 1 mM added to air pouch) | activity in the rat air pouch assay [1] | Leucocytes in lavage fluid (×10^−7) ([1]; 100 μM added to air pouch) | Polymorphs in tissue sections (per 100 squares) ([1]; 100 μM added to air pouch) | P-cadherin expression in the skin, treatment alone ([2]; without UVB) | reduction of UVB-induced P-cadherin positive cells ([2]; 72 h, Skh:hr-1) | disease course [3] | severity of clinical signs ([3]; acute phase and first relapse at 28-36 days)
1 | 130 | Cc1c(O)ccc2c1OCC(c1cccc(O)c1)=C2 [Cpd. 14, 3′,7-Dihydroxy-8-methylisoflav-3-ene] |  |  |  |  |  |  |  |  | 
2 |  | COc1cccc(C2=Cc3ccc(O)cc3OC2)c1 [Cpd. 16, 7-Hydroxy-3′-methoxyisoflav-3-ene] | 0.53 ± 0.35 ×10^−7 | 14.1 ± 15.8 | active |  |  |  |  |  | 
3 |  | COc1ccc(C2=Cc3ccc(O)cc3OC2)cc1OC [Cpd. 18, 7-Hydroxy-3′,4′-dimethoxyisoflav-3-ene] | 0.51 ± 0.33 ×10^−7 | 6.3 ± 1.3 | active | 0.88 ± 0.30 ×10^−7 | 23.2 ± 10.4 | no effect | approximately 50% | chronic relatively stable disease | tended to reduce the severity
